The test system of one assay is KB. The assay can be described thus: Cytotoxicity against human KB cells. It counts as functional, cell-based.
The test system of the next assay is LoVo. The experiment in a line: Cytotoxicity against human LoVo cells. It is filed as functional, cell-based.

In brackets after ≈: the same amount, converted by molar mass.

What is called IC50 is the concentration that gives 50% inhibition. A higher IC50 goes with weaker potency. Take `CC[C@H](C)[C@H](O)C(=O)N[C@@H](CC(C)C)C(=O)N(C)[C@@H](CCC(N)=O)C(=O)N[C@H](C(=O)NCC(=O)N(C)[C@H](Cc1ccccc1)C(=O)N1CCC[C@H]1C(=O)OC)[C@@H](C)CC` [TASIAMIDE]: the half-maximal inhibitory concentration (IC50) was 0.48 µg/mL (≈ 0.578 µM) in the assay on KB and 3.47 µg/mL (≈ 4.18 µM) in the assay on LoVo.
